Earlier results, collected in US4868155A, “Dipeptidyl 4-0-,6-0-acyl-2-amino-2-deoxy-D-glucose compositions and methods of use in AIDS-immunocompromised human hosts” (Merck & Co., Inc., priority 1987, dated 1989).
Where two headings read alike, the source gives them in different places.

Columns and labels:
[1] = system: Mycobacterium avium intracellulare; details: AIDS patients infected with Mycobacterium avium intracellulare
[2] = in vivo
AIDS related virus = details: for clinical benefit (symptoms, immune function) in AIDS / ARC patients: clinical trials; for virus replication in humans: patients
[3] = system: reverse transcriptase in several retroviruses; details: in vitro

CO[C@H]1/C=C/O[C@@]2(C)Oc3c(C)c(O)c4c(c3C2=O)C2=NC3(CCN(CC(C)C)CC3)NC2=C(NC(=O)/C(C)=C\C=C\[C@H](C)[C@H](O)[C@@H](C)[C@@H](O)[C@@H](C)[C@H](OC(C)=O)[C@@H]1C)C4=O [Ansamycin, rifabutin]
efficacy against opportunistic infection [1]: some efficacy

Cc1cn([C@H]2C[C@H](N=[N+]=[N-])[C@@H](CO)O2)c(=O)[nH]c1=O [Azidothymidine, 3' azido 3'-deoxythymidine]
oral absorption [2]: Well absorbed orally

CC(C)(N1CC1C#N)N1CC1C(N)=O (stereo not shown) [Azimexon]
clinical benefit (symptoms, immune function) in AIDS / ARC patients (AIDS related virus): improvements in symptoms and immune function in patients with ARC but not AIDS | toxicity / side effects (patients): mild hemolysis

CC(C)(S)[C@@H](N)C(=O)O [D Penicillamine, 3-mercapto D valine]
virus replication in humans (AIDS related virus): Inhibits HIV reproduction in humans | T cell levels (13 AIDS patients with perpetually swollen glands): temporarily depressed T cell levels

O=C(O)P(=O)(O)O [Foscarnet, trisodium phosphonoformate]
toxicity / side effects (human, in vivo): serious side effects

CC(=O)Nc1ccc(C(=O)O)cc1.CC(=O)Nc1ccc(C(=O)O)cc1.CC(=O)Nc1ccc(C(=O)O)cc1.CC(O)CN(C)C.CC(O)CN(C)C.CC(O)CN(C)C.O=c1[nH]cnc2c1ncn2[C@@H]1O[C@H](CO)[C@@H](O)[C@H]1O [Inosine granobex]
clinical benefit (symptoms, immune function) in AIDS / ARC patients (AIDS related virus): improve immune function in ARC patients

NC(=O)c1ncn([C@@H]2O[C@H](CO)[C@@H](O)[C@H]2O)n1 [Ribavirin, 1 8 D ribofuranosyl-1,2,4-triazole-3-carboxamide]
clinical benefit (symptoms, immune function) in AIDS / ARC patients (AIDS related virus): improved immune function | virus replication in humans (AIDS related virus): inhibited viral replication | safety profile (human, in vivo): acceptable

Cc1ccc(C(=O)Nc2ccc(S(=O)(=O)O)c3cc(S(=O)(=O)O)cc(S(=O)(=O)O)c23)cc1NC(=O)c1cccc(NC(=O)Nc2cccc(C(=O)Nc3cc(C(=O)Nc4ccc(S(=O)(=O)O)c5cc(S(=O)(=O)O)cc(S(=O)(=O)O)c45)ccc3C)c2)c1 [Suramin]
clinical benefit (symptoms, immune function) in AIDS / ARC patients (AIDS related virus): little or no evidence of clinical improvement or immunologic recovery

ammonium 21 tungsto 9 antimoniate [HPA-23]
inhibition of reverse transcriptase in several retroviruses [3]: Inhibits reverse transcriptase in several retroviruses in vitro | growth of HIV (HIV): some tendency to check the growth of HIV | clinical benefit (symptoms, immune function) in AIDS / ARC patients (AIDS related virus): no therapeutic benefit

α-Interferon
tumor regression in AIDS-related Kaposi's sarcoma (AIDS related virus; AIDS-related Kaposi's sarcoma cases): induced tumor regression in some AIDS-related Kaposi's sarcoma cases
